The values that follow come from ChEMBL document CHEMBL4715857, “Structure-based linker exploration: Discovery of 1-ethyl-1H-indole analogs as novel ATX inhibitors” (Bioorg Med Chem, 2020).

The target in the experiment is Autotaxin (Homo sapiens, UniProt Q13822). Kind of experiment: Inhibition of glycosylated human ATX using FS-3 as substrate preincubated for 45 mins followed by substrate addition and measured every 1 min for 30 mins by fluorescence microplate reader assay.
Usually IC50 stands for the concentration at which inhibition is half-maximal. The low end stands for greater potency, the high end for weaker potency. In the case of `CCn1cc(C(=O)N/N=C/c2coc3ccccc3c2=O)c2cc(-c3nc(CN4CCOCC4)cs3)ccc21`, the IC50 is 7240 nM. To `CCn1cc(C(=O)N/N=C/c2ccc(F)cc2F)c2cc(-c3nc(CN4CCOCC4)cs3)ccc21` belongs 4050 nM; to `CCn1cc(C(=O)O)c2cc(-c3nc(CN(CO)CO)cs3)ccc21`, 710 nM. Regarding `CCn1cc(NC(=O)NCc2ccc(Cl)cc2)c2cc(-c3nc(CN4CCN(CCO)CC4)cs3)ccc21`, the IC50 came to 156 nM.

`CCn1cc(NC(=O)NCc2ccc(Cl)cc2)c2cc(NC(=O)c3ccc(CN4CCCC4)cc3)ccc21` registered an IC50 of 351 nM. The molecule `CCn1cc(C(=O)N/N=C2\CCc3cc(OC)c(OC)cc32)c2cc(-c3nc(CN4CCOCC4)cs3)ccc21` gave an IC50 of 8270 nM. For the molecule `CCn1cc(C(=O)N/N=C2\CCc3cc(Br)ccc32)c2cc(-c3nc(CN4CCOCC4)cs3)ccc21`, the IC50 was > 10000 nM.

In the case of `CCn1cc(NC(=O)NCc2ccc(F)cc2)c2cc(NC(=O)c3ccc(CN4CCN(C)CC4)cc3)ccc21`, the IC50 is 190 nM.

In turn, `CCn1cc(NC(=O)NCc2ccc(F)cc2)c2cc(-c3nc(CN4CCC(O)CC4)cs3)ccc21` yielded an IC50 of 313 nM. To `CCn1cc(C(=O)O)c2cc(-c3nc(CN4CCC(O)CC4)cs3)ccc21` belongs 680 nM.

For `CCn1cc(C(=O)N/N=C(\C)c2ccc(OC)cc2)c2cc(-c3nc(CN4CCOCC4)cs3)ccc21`, the 50% inhibitory concentration (IC50) was > 10000 nM.

Take `CCn1cc(NC(=O)NCc2ccc(F)cc2)c2cc(-c3nc(CN4CCOCC4)cs3)ccc21`: the midpoint of inhibition, the IC50, lay at 252 nM. The figure for `CCn1cc(C(=O)O)c2cc(-c3nc(CN4CCN(CCO)CC4)cs3)ccc21` is 410 nM. For the molecule `CCn1cc(NC(=O)NCc2ccc(F)cc2)c2cc(NC(=O)c3ccc(CN4CCC(O)CC4)cc3)ccc21`, half-maximal inhibition (IC50) was put at 2.3 nM. The figure for `CCn1cc(C(=O)N/N=C(\C)c2ccc(F)cc2F)c2cc(-c3nc(CN4CCOCC4)cs3)ccc21` is 9230 nM. `CCn1cc(NC(=O)NCc2ccc(F)cc2)c2cc(NC(=O)c3ccc(CN4CCCCC4)cc3)ccc21` had an IC50 of 530 nM. Consider `CCn1cc(NC(=O)NCc2ccc(F)cc2)c2cc(NC(=O)c3ccc(CN4CCN(CCO)CC4)cc3)ccc21`, for which it took 101 nM to reach half-maximal inhibition (IC50). To `CCn1cc(NC(=O)NCc2ccc(Cl)cc2)c2cc(NC(=O)c3ccc(CN4CCOCC4)cc3)ccc21` belongs 107 nM; to `CCn1cc(C(=O)O)c2cc(-c3nc(CN4CCCC4)cs3)ccc21`, 930 nM. Consider `CCn1cc(C(=O)O)c2cc(-c3nc(CN4CCN(C)CC4)cs3)ccc21`, for which the IC50 is 1290 nM.

As for `CCn1cc(C(=O)O)c2cc(-c3nc(CN4CCC[C@H]4CO)cs3)ccc21`, the IC50 was determined as 590 nM. Consider `CCn1cc(NC(=O)NCc2ccc(F)cc2)c2cc(NC(=O)c3ccc(CN4CCCC4)cc3)ccc21`, for which the IC50 is 280 nM. The figure for `CCn1cc(NC(=O)NCc2ccc(F)cc2)c2cc(-c3nc(CN(CCO)CCO)cs3)ccc21` is 234 nM; for `CCn1cc(NC(=O)NCc2ccc(F)cc2)c2cc(NC(=O)c3ccc(CN4CCC(C)CC4)cc3)ccc21` it is 370 nM; for `CCn1cc(C(=O)N/N=C/c2ccc(F)c(F)c2)c2cc(-c3nc(CN4CCOCC4)cs3)ccc21` it is 3490 nM.

With `CCn1cc(NC(=O)NCc2ccc(F)cc2)c2cc(NC(=O)c3ccc(CN4CCOCC4)cc3)ccc21`, inhibition was half-maximal at 110 nM (IC50). The figure for `CCn1cc(NC(=O)NCc2ccc(Cl)cc2)c2cc(NC(=O)c3ccc(CN4CCC(O)CC4)cc3)ccc21` is 13.1 nM. Take `CCn1cc(C(=O)N/N=C/c2ccc(C(F)(F)F)cc2)c2cc(-c3nc(CN4CCOCC4)cs3)ccc21`: the midpoint of inhibition, the IC50, lay at 6140 nM. To `CCn1cc(C(=O)N/N=C/c2ccc(F)cc2Cl)c2cc(-c3nc(CN4CCOCC4)cs3)ccc21` belongs 6370 nM; to `CCn1cc(NC(=O)NCc2ccc(Cl)cc2)c2cc(-c3nc(CN4CCN(C)CC4)cs3)ccc21`, 199 nM. To `CCn1cc(C(=O)N/N=C/c2c(O)ccc3ccccc23)c2cc(-c3nc(CN4CCOCC4)cs3)ccc21` belongs > 10000 nM; to `CCn1cc(C(=O)O)c2cc(-c3nc(CN4CCOCC4)cs3)ccc21`, 820 nM.
